Compound | melting point
Cc1cc(Cl)cc(C(=O)NC(C)C)c1NC(=O)c1cc(OCC(F)(F)F)nn1-c1ncccc1Cl | 217 to 218 °C
CC(C)NC(=O)c1cc(Cl)cc(Cl)c1NC(=O)c1cc(OCC(F)(F)F)nn1-c1ncccc1Cl | 232 to 235 °C
CC(C)NC(=O)c1cc(Cl)cc(Cl)c1NC(=O)c1cc(Cl)nn1-c1ncccc1Cl | 197 to 199 °C
CC(C)NC(=O)c1cc(Cl)cc(Cl)c1NC(=O)c1cc(Br)nn1-c1ncccc1Cl | 188 to 190 °C
CCNC(=O)c1cc(Cl)cc(C)c1NC(=O)c1cc(OCC(F)(F)F)nn1-c1ncccc1Cl | 205 to 207 °C
CNC(=O)c1cc(Cl)cc(C)c1NC(=O)c1cc(OCC(F)(F)F)nn1-c1ncccc1Cl | 207 to 208 °C
CCNC(=O)c1cc(Cl)cc(C)c1NC(=O)c1cc(Br)nn1-c1ncccc1Cl | 194 to 195 °C
CCNC(=O)c1cc(Cl)cc(Cl)c1NC(=O)c1cc(C(F)(F)F)nn1-c1ncccc1Cl | 201 to 202 °C
CCNC(=O)c1cc(Cl)cc(Cl)c1NC(=O)c1cc(Cl)nn1-c1ncccc1Cl | 206 to 208 °C
Cc1cc(Cl)cc(C(=O)NC(C)(C)C)c1NC(=O)c1cc(C(F)(F)F)nn1-c1ncccc1Cl | 223 to 225 °C
Cc1cc(Cl)cc(C(=O)NC(C)(C)C)c1NC(=O)c1cc(Br)nn1-c1ncccc1Cl | 159 to 161 °C
CC(C)(C)NC(=O)c1cc(Cl)cc(Cl)c1NC(=O)c1cc(Cl)nn1-c1ncccc1Cl | 172 to 173 °C
CC(C)(C)NC(=O)c1cc(Cl)cc(Cl)c1NC(=O)c1cc(Br)nn1-c1ncccc1Cl | 179 to 180 °C
CNC(=O)c1cc(Br)cc(C)c1NC(=O)c1cc(C(F)(F)F)nn1-c1ncccc1Cl | 222 to 223 °C
Cc1cc(Br)cc(C(=O)NC(C)C)c1NC(=O)c1cc(C(F)(F)F)nn1-c1ncccc1Cl | 197 to 198 °C
Cc1cc(Br)cc(C(=O)NC(C)(C)C)c1NC(=O)c1cc(C(F)(F)F)nn1-c1ncccc1Cl | 247 to 248 °C
CNC(=O)c1cc(Br)cc(C)c1NC(=O)c1cc(Cl)nn1-c1ncccc1Cl | 140 to 141 °C

Compound | melting point
CCNC(=O)c1cc(Br)cc(C)c1NC(=O)c1cc(Cl)nn1-c1ncccc1Cl | 192 to 194 °C
Cc1cc(Br)cc(C(=O)NC(C)(C)C)c1NC(=O)c1cc(Cl)nn1-c1ncccc1Cl | 224 to 225 °C
CNC(=O)c1cc(I)cc(C)c1NC(=O)c1cc(C(F)(F)F)nn1-c1ncccc1Cl | 199 to 200 °C
Cc1cc(I)cc(C(=O)NC(C)C)c1NC(=O)c1cc(C(F)(F)F)nn1-c1ncccc1Cl | 188 to 189 °C
CNC(=O)c1cc(I)cc(C)c1NC(=O)c1cc(Cl)nn1-c1ncccc1Cl | 233 to 234 °C
Cc1cc(I)cc(C(=O)NC(C)(C)C)c1NC(=O)c1cc(Cl)nn1-c1ncccc1Cl | 228 to 229 °C
CNC(=O)c1cc(I)cc(C)c1NC(=O)c1cc(Br)nn1-c1ncccc1Cl | 229 to 230 °C
CC(C)NC(=O)c1cc(Br)cc(Br)c1NC(=O)c1cc(C(F)(F)F)nn1-c1ncccc1Cl | 192 to 193 °C
CC(C)(C)NC(=O)c1cc(Br)cc(Br)c1NC(=O)c1cc(Cl)nn1-c1ncccc1Cl | 210 to 212 °C
CNC(=O)c1cc(Cl)cc(Cl)c1NC(=O)c1cc(OCC(F)(F)F)nn1-c1ncccc1Cl | 192 to 195 °C
CNC(=O)c1cc(Br)cc(Br)c1NC(=O)c1cc(Br)nn1-c1ncccc1Cl | 166 to 168 °C
CC(C)NC(=O)c1cc(Br)cc(Br)c1NC(=O)c1cc(Br)nn1-c1ncccc1Cl | 162 to 163 °C
CC(C)(C)NC(=O)c1cc(Br)cc(Cl)c1NC(=O)c1cc(C(F)(F)F)nn1-c1ncccc1Cl | 143 to 145 °C
CN(C)C(=O)c1cc(Cl)cc(Cl)c1NC(=O)c1cc(Cl)nn1-c1ncccc1Cl | 231 to 232 °C
CN(C)C(=O)c1cc(Br)cc(Br)c1NC(=O)c1cc(Br)nn1-c1ncccc1Cl | 189 to 190 °C
CN(C)C(=O)c1cc(Cl)cc(Cl)c1NC(=O)c1cc(Br)nn1-c1ncccc1Cl | 216 to 218 °C

Source: patent US8735431B2, “Active compound combinations having insecticidal properties” (priority 2003, dated 2014)
